Measured values reported in patent US20130344095A1, “METHOD OF USING CD1D OVER-EXPRESSION IN HUMAN DENDRITIC CELLS TO ENHANCE CD8+ T CELL-BASED AND INVARIANT NATURAL KILLER T CELL-BASED ANTITUMOR IMMUNITY” (priority 2011, published 2013).

How the values were obtained:
[1] = system: MART-1 peptide-specific CD8+ T cells; experiment: Priming of MART-1 peptide-specific CD8+ T cells by moDCs (pentamer staining); format: cell-based, human; conditions: DCs treated 24 hours with 20 μM PPMP or 150 μM NB-DGJ one day after transduction
Procedure: The DCs were first transduced by BV-CMV.CD1d-WPRE and pulsed with or without 100 ng/ml α-GC for 24 h one day after transduction. Two days after transduction, the DCs were pulsed with 10 μg/ml MART-1 peptide for 4 h. After washing, 10^5 DCs were co-cultured with 10^6 HLA A2+ PBLs in complete RPMI 1640. After co-culture of 9 days, to detect antigen-specific CTLs, the samples were stained with APC mouse anti-human CD3, FITC-labeled anti-CD8 (ProImmune) and R-PE-labeled A*0201/[…] Pentamer (ProImmune) and analyzed by FACSAria flow cytometer. In some experiments, the CD1d-overexpressing human DCs were pretreated with anti-CD1d blocking antibody (eBioscience, San Diego, Calif.) or its isotype control (eBiosciecne) before applying for T cell priming. To study the effect of glycolipid biosynthesis inhibition on T cell priming, the BVCD1d-transduced human DCs were treated with 20 μM DL-threo-1-Phenyl-2-palmitoylamino-3-morpholino-1-propanol (PPMP; Sigma-Aldrich) or 150 μM N-(n-Butyl)deoxygalactonojirimycin (NB-DGJ; Merck KGaA, Darmstadt, Germany) for 24 hours one day after transduction. In other experiments, the cocultures were restimulated with 10^5 MART-1 peptide-pulsed DCs on day 9 of coculture and analyzed one week after restimulation. […]

[2] = system: MART-1 peptide-specific CD8+ T cells; experiment: Priming of MART-1 peptide-specific CD8+ T cells by H1.DCs (pentamer staining); format: cell-based, human; conditions: for T cell priming ability of CD1d-overexpressing H1.DCs: DCs treated 24 hours with 20 μM PPMP or 150 μM NB-DGJ one day after transduction
Procedure: The DCs were first transduced by BV-CMV.CD1d-WPRE and pulsed with or without 100 ng/ml α-GC for 24 h one day after transduction. Two days after transduction, the DCs were pulsed with 10 μg/ml MART-1 peptide for 4 h. After washing, 10^5 DCs were co-cultured with 10^6 HLA A2+ PBLs in complete RPMI 1640. After co-culture of 9 days, to detect antigen-specific CTLs, the samples were stained with APC mouse anti-human CD3, FITC-labeled anti-CD8 (ProImmune) and R-PE-labeled A*0201/[…] Pentamer (ProImmune) and analyzed by FACSAria flow cytometer. In some experiments, the CD1d-overexpressing human DCs were pretreated with anti-CD1d blocking antibody (eBioscience, San Diego, Calif.) or its isotype control (eBiosciecne) before applying for T cell priming. To study the effect of glycolipid biosynthesis inhibition on T cell priming, the BVCD1d-transduced human DCs were treated with 20 μM DL-threo-1-Phenyl-2-palmitoylamino-3-morpholino-1-propanol (PPMP; Sigma-Aldrich) or 150 μM N-(n-Butyl)deoxygalactonojirimycin (NB-DGJ; Merck KGaA, Darmstadt, Germany) for 24 hours one day after transduction. In other experiments, the cocultures were restimulated with 10^5 MART-1 peptide-pulsed DCs on day 9 of coculture and analyzed one week after restimulation. To measure antigen-specific CTL activity, the cocultures were stimulated for the third time on day 7 after second stimulation with 10^5 MART-1 peptide-pulsed DCs and used as effectors for lysis of tumor cells one week later.

Row | Compound | T cell priming ability of CD1d-overexpressing moDCs [1] | T cell priming ability of CD1d-overexpressing H1.DCs [2] | priming ability of CD1d-overexpressing H1.DCs with α-GC loading ([2]; compared with those without α-GC loading (p<0.04)) | effect of α-GC loading on priming of antigen-specific CD8+ T cells ([2]; mock-transduced, BV-PacPAK6-transduced and CD1d-overexpressing H1.DCs, 100 ng/ml α-GC)
1 | CCCCCCCCCCCCCCCC(=O)N[C@H](CN1CCOCC1)[C@H](O)c1ccccc1 (racemic) [PPMP, DL-threo-1-Phenyl-2-palmitoylamino-3-morpholino-1-propanol] | inhibited | inhibited | – | –
2 | CCCCN1C[C@H](O)[C@@H](O)[C@@H](O)[C@H]1CO [NB-DGJ, N-(n-Butyl)deoxygalactonojirimycin] | inhibited | inhibited | – | –
3 | CCCCCCCCCCCCCCCCCCCCCCCCCC(=O)N[C@@H](CO[C@H]1O[C@H](CO)[C@H](O)[C@H](O)[C@H]1O)[C@H](O)[C@H](O)CCCCCCCCCCCCCC [α-GC, α-galactosylceramide] | – | – | significantly decreased | no obvious beneficial effect
